Assay results from patent US20260216238A1, “TETRATHIOMOLYBDIC ACID FOR USE IN TREATING COPPER METABOLISM-ASSOCIATED DISEASES OR DISORDERS (WILSON DISEASE)” (Alexion Pharmaceuticals, Inc., priority 2023, published 2026).

What was measured:
[1] = test system: patients with Wilson disease (WD); test: Clinical Global Impression-Improvement scale (CGI-I); type: in vivo, human; conditions: for Transformed CGI-I (−3 to 3), LSM / Transformed CGI-I (−3 to 3), Mean: Study 301 TTM long term set
Description: Clinical Global Impression-[…]: The Clinical Global Impression (CGI) rating scales were commonly used measures of symptom severity, treatment response, and the efficacy of treatments in treatment studies of adult and pediatric patients with mental disorders.
While transformed CGI-I (TCGI-I) assesses how the WD patients' condition changed compared to baseline, CGI-I may indicate the overall clinical improvement of the patients in the study compared to baseline for each treatment arm.

[2] = human, in vivo
Description: Pharmacokinetics: Blood samples for PK analysis were collected to measure plasma total molybdenum and plasma ultrafiltrate (PUF) molybdenum.

[3] = test system: patients with Wilson disease (WD); conditions: in vivo
[4] = test system: patients with Wilson disease (WD); test: Study 301: adverse events in participants who switched from SoC to TTM in the Extension Period; conditions: SoC: Weeks 0-48, N=70; TTM after switch: Weeks 49-96, N=61
[5] = test system: patients with Wilson disease (WD); test: Study 301: daily mean AUEC of plasma directly measured non-ceruloplasmin-bound copper (dNCC), copper mobilization; type: in vivo, human; conditions: for Mean Daily dNCC AUEC0-48 w, LSM: ANCOVA; for Mean Daily dNCC AUEC0-48 w, LSM / Mean Daily dNCC AUEC0-48 w, Mean: multiple imputation; for Mean Daily dNCC AUEC0-48 w, Mean: Full Analysis Set; for Mean Daily dNCC AUEC0-48 w, Between Group LSM Diff / Mean Daily dNCC AUEC0-48 w, Within Group LSM: lower block of Table 5
Description: FIG. 1 provides a schematic view of the study design. […] This study is referred throughout as Study 301.
The primary endpoint integrated copper mobilization and sequestration (i.e., copper control) throughout the 48-week Primary Treatment Period by assessment of daily mean area under the effect-time curve (AUEC) of directly measured non-ceruloplasmin-bound copper (dNCC) concentration. […] Measurement of dNCC in plasma is highly sensitive and accurate, requiring no special formulas or assumptions. As proposed, dNCC AUEC0-48 W is an indirect measure of copper mobilization and sequestration.
This assessment is also applicable to SoC treatments. In addition, plasma Cp, CpC, plasma total copper, and LBC were measured with AUEC calculated for plasma total copper and LBC.
The AUEC for dNCC concentration was calculated using the trapezoidal rule, and then divided by number of days to yield a mean daily AUEC plasma dNCC concentration from baseline to Week 48 (expressed as μmol/L and described as AUEC0-48 W).
Tests were performed at a significance level of 0.05 (2-sided).

[6] = Subpopulation E, Week 48, TTM N=78, SoC N=39

Substance: bis-choline tetrathiomolybdate [TTM]
- T-CGI-I (−3 to 3, −3 is very much improved) at 48 weeks, LSM ([1]; Study 301 Full Analysis Set): −0.7
- T-CGI-I (−3 to 3, −3 is very much improved) at 48 weeks, Mean ([1]; Study 301 Full Analysis Set): −0.7
- Transformed Global Improvement (CGI-I), Change from Baseline, LSM ([1]; Subpopulation E, Week 48): −0.7
- Transformed Global Improvement (CGI-I), Change from Baseline, LSM Diff (TTM vs SoC) ([1]; Subpopulation E, Week 48): −0.5
- Transformed Global Improvement (CGI-I), Change from Baseline, Max [1, 6]: 1
- Transformed Global Improvement (CGI-I), Change from Baseline, Mean [1, 6]: −0.7
- Transformed Global Improvement (CGI-I), Change from Baseline, Median [1, 6]: 0.0
- Transformed Global Improvement (CGI-I), Change from Baseline, Min [1, 6]: −3,
- Transformed Global Improvement (CGI-I), Change from Baseline, Q1 [1, 6]: −1.0,
- Transformed Global Improvement (CGI-I), Change from Baseline, Q3 [1, 6]: 0.0
- T-CGI-I, Difference at 48 weeks, LSM ([1]; TTM vs SoC, P 0.0316): −0.3
- CGI-I, LSM difference (SE) TTM versus SoC ([1]; W0-W48, cohort 1 incomplete response or intolerant, p=0.0051): −0.4 (0.15)
- Transformed CGI-I (−3 to 3), LSM ([1]; Week 24): −0.6
- Transformed CGI-I (−3 to 3), Mean ([1]; Week 24): −0.5
- Transformed CGI-I (−3 to 3), LSM ([1]; Week 48): −0.8
- Transformed CGI-I (−3 to 3), Mean ([1]; Week 48): −0.7
- Transformed CGI-I (−3 to 3), LSM ([1]; Week 72): −0.6
- Transformed CGI-I (−3 to 3), Mean ([1]; Week 72): −0.5
- Transformed CGI-I (−3 to 3), LSM ([1]; Week 96): −0.6
- Transformed CGI-I (−3 to 3), Mean ([1]; Week 96): −0.5
- Transformed CGI-I (−3 to 3), LSM ([1]; Week 120): −0.7
- Transformed CGI-I (−3 to 3), Mean ([1]; Week 120): −0.7
- Transformed CGI-I (−3 to 3), LSM ([1]; Week 144): −0.8
- Transformed CGI-I (−3 to 3), Mean ([1]; Week 144): −0.7
- Daily Mean AUC(0-48 weeks) PUF Mo, Mean [2]: 0.1 mmol/L
- ALT increased AE, % participants [3]: 14.6%
- ALT increased AE, E events [3]: 25
- ALT increased AE, N participants [3]: 20
- ALT increased adverse event [3]: 14.6%
- AST increased AE, % participants [3]: 2.9%
- AST increased AE, E events [3]: 4
- AST increased AE, N participants [3]: 4
- GGT increased AE, % participants [3]: 2.2%
- GGT increased AE, E events [3]: 3
- GGT increased AE, N participants [3]: 3
- Hepatic enzyme increased AE, N participants [3]: 3
- Hepatic function abnormal AE, % participants [3]: 2.2%
- Hepatic function abnormal AE, E events [3]: 3
- Hepatic function abnormal AE, N participants [3]: 3
- Hyperbilirubinemia AE, % participants [3]: 0.7%
- Hyperbilirubinemia AE, E events [3]: 1
- Hyperbilirubinemia AE, N participants [3]: 1
- Hypertransaminasemia AE, % participants [3]: 1.5%
- Hypertransaminasemia AE, E events [3]: 4
- Hypertransaminasemia AE, N participants [3]: 2
- Jaundice AE, % participants [3]: 0.7%
- Jaundice AE, E events [3]: 1
- Jaundice AE, N participants [3]: 1
- LFT abnormal AE, % participants [3]: 1.5%
- LFT abnormal AE, E events [3]: 2
- LFT abnormal AE, N participants [3]: 2
- LFT increased AE, % participants [3]: 2.9%
- LFT increased AE, E events [3]: 4
- LFT increased AE, N participants [3]: 4
- Liver disorder AE, % participants [3]: 0.7%
- Liver disorder AE, E events [3]: 1
- Liver disorder AE, N participants [3]: 1
- participants with ALT>3×ULN but≤5×ULN [3]: 10.2%
- participants with ALT>5×ULN but≤10×ULN [3]: 7.3%
- participants with ALT>10×ULN but≤20×ULN [3]: 0.7%
- participants with ALT>20×ULN [3]: 2.9%
- participants with post-baseline elevation of ALT ≥3× ULN [3]: 29 participants
- Musculoskeletal and connective tissue disorders, E (events) [4]: 7
- Musculoskeletal and connective tissue disorders, participants with AE [4]: 7 (11.5) N (%)
- Mean Daily dNCC AUEC0-48 w, LSM Diff (TTM-SoC) ([5]; Cohort 1): 1.64 µmol/L
- Mean Daily dNCC AUEC0-48 w, LSM ([5]; Cohort 1): 2.50 µmol/L
- Mean Daily dNCC AUEC0-48 w, Mean ([5]; Cohort 1): 2.68 µmol/L
- Mean Daily dNCC AUEC0-48 w, Between Group LSM Diff ([5]; Cohort 1): 1.72 µmol/L
- Mean Daily dNCC AUEC0-48 w, Within Group LSM ([5]; Cohort 1): 2.59 µmol/L
- Mean Daily dNCC AUEC0-48 w, LSM Diff (TTM-SoC) ([5]; Cohort 2): 3.79 µmol/L
- Mean Daily dNCC AUEC0-48 w, LSM ([5]; Cohort 2): 4.76 µmol/L
- Mean Daily dNCC AUEC0-48 w, Mean ([5]; Cohort 2): 4.58 µmol/L
- Mean Daily dNCC AUEC0-48 w, Between Group LSM Diff ([5]; Cohort 2): 3.68 µmol/L
- Mean Daily dNCC AUEC0-48 w, Within Group LSM ([5]; Cohort 2): 4.64 µmol/L
- Mean Daily dNCC AUEC0-48 w, LSM Diff (TTM-SoC) ([5]; Overall): 2.18 µmol/L
- Mean Daily dNCC AUEC0-48 w, LSM ([5]; Overall): 3.18 µmol/L
- Mean Daily dNCC AUEC0-48 w, Mean ([5]; Overall): 3.12 µmol/L
- Mean Daily dNCC AUEC0-48 w, Between Group LSM Diff ([5]; Overall): 2.12 µmol/L
- Mean Daily dNCC AUEC0-48 w, Within Group LSM ([5]; Overall): 3.06 µmol/L
- dNCC area under the effect curve, LSM difference (SE) TTM versus SoC ([5]; W0-W48, cohort 1 incomplete response or intolerant to prior SoC, p<0.0001): 1.64 (0.297)
